Test results reported in patent publication US8445492B2, “Method for inhibiting growth of cancer cells and cell telomere and diseases of cell proliferation by using heteroannelated anthraquinone derivative compounds” (National Defense Medical Center, priority 2008, dated 2013).

Key:
Assay type in all cases: cell-based
[1] = test system: 786-0; test: NCI DTP in-vitro dose response, Renal Cancer
[2] = test system: A498; test: NCI DTP in-vitro dose response, Renal Cancer
[3] = test system: ACHN; test: NCI DTP in-vitro dose response, Renal Cancer; conditions: ACHN
[4] = test system: CAKI-1; test: NCI DTP in-vitro dose response, Renal Cancer
[5] = test system: SN12C; test: NCI DTP in-vitro dose response, Renal Cancer; conditions: SN12C
[6] = test system: TK-10; test: NCI DTP in-vitro dose response, Renal Cancer
[7] = test system: UO-31; test: NCI DTP in-vitro dose response, Renal Cancer
[8] = test system: RXF 393; test: NCI DTP in-vitro dose response, Renal Cancer
[9] = test system: HOP-92; test: in vitro test at 1.0×10^−5 M, Non-small cell lung cancer cell; conditions: 1.0×10^−5 molal concentration (M)
[10] = test system: HCC-2998; test: in vitro test at 1.0×10^−5 M, Colorectal cancer cell; conditions: 1.0×10^−5 molal concentration (M)
[11] = test system: MCF7; test: in vitro test at 1.0×10^−5 M, Breast cancer cell; conditions: 1.0×10^−5 molal concentration (M)
[12] = test system: MDA-MB-435; test: in vitro test at 1.0×10^−5 M, Breast cancer cell; conditions: 1.0×10^−5 molal concentration (M)
[13] = test system: MDA-MB-468; test: in vitro test at 1.0×10^−5 M, Breast cancer cell; conditions: 1.0×10^−5 molal concentration (M)
[14] = test system: T-47D; test: in vitro test at 1.0×10^−5 M, Breast cancer cell; conditions: 1.0×10^−5 molal concentration (M)
[15] = test system: IGROV1; test: in vitro test at 1.0×10^−5 M, Ovary cancer cell; conditions: 1.0×10^−5 molal concentration (M)
[16] = test system: OVCAR-4; test: in vitro test at 1.0×10^−5 M, Ovary cancer cell; conditions: 1.0×10^−5 molal concentration (M)
[17] = test system: MOLT-4; test: in vitro test at 1.0×10^−5 M, Blood cancer cell; conditions: 1.0×10^−5 molal concentration (M)
[18] = test system: ACHN; test: in vitro test at 1.0×10^−5 M, Kidney cancer cell; conditions: 1.0×10^−5 molal concentration (M)
[19] = test system: SN12C; test: in vitro test at 1.0×10^−5 M, Kidney cancer cell; conditions: 1.0×10^−5 molal concentration (M)
[20] = test system: UO-31; test: in vitro test at 1.0×10^−5 M, Kidney cancer cell; conditions: 1.0×10^−5 molal concentration (M)
[21] = test system: LOX IMV1; test: in vitro test at 1.0×10^−5 M, Skin cancer cell; conditions: 1.0×10^−5 molal concentration (M)
[22] = test system: MALME-3M; test: in vitro test at 1.0×10^−5 M, Skin cancer cell; conditions: 1.0×10^−5 molal concentration (M)
[23] = test system: SK-MEL-2; test: in vitro test at 1.0×10^−5 M, Skin cancer cell; conditions: 1.0×10^−5 molal concentration (M)
[24] = test system: UACC-257; test: in vitro test at 1.0×10^−5 M, Skin cancer cell; conditions: 1.0×10^−5 molal concentration (M)
[25] = test system: UACC-62; test: in vitro test at 1.0×10^−5 M, Skin cancer cell; conditions: 1.0×10^−5 molal concentration (M)
[26] = test system: SF-539; test: in vitro test at 1.0×10^−5 M, CNS cancer cell; conditions: 1.0×10^−5 molal concentration (M)
[27] = test system: U251; test: in vitro test at 1.0×10^−5 M, CNS cancer cell; conditions: 1.0×10^−5 molal concentration (M)
[28] = test system: different cancer cell lines; test: in vitro test at 1.0×10^−5 M, summary over the cell lines; design: unit not given here; conditions: 1.0×10^−5 molal concentration (M)
[29] = read-out: LC50 (the source's name)

O=C1c2ccccc2C(=O)c2c1ccc1nccnc21 [TABLE 5-7]
TGI ([1]; 786-0): >1.00E−4 | Percent Growth ([1]; 786-0, Log10 Concentration −4.0): 15% | Percent Growth ([1]; 786-0, Log10 Concentration −5.0): 47% | Percent Growth ([1]; 786-0, Log10 Concentration −6.0): 104% | Percent Growth ([1]; 786-0, Log10 Concentration −7.0): 101% | Percent Growth ([1]; 786-0, Log10 Concentration −8.0): 98% | GI50 ([1]; 786-0, read-out: GI50): 8.87 µM | CC50 ([1]; 786-0, read-out: LC50 (the source's name)): > 100 µM | TGI ([2]; A498): 5.03E−5 | Percent Growth ([2]; A498, Log10 Concentration −4.0): −21% | Percent Growth ([2]; A498, Log10 Concentration −5.0): 49% | Percent Growth ([2]; A498, Log10 Concentration −6.0): 89% | Percent Growth ([2]; A498, Log10 Concentration −7.0): 85% | Percent Growth ([2]; A498, Log10 Concentration −8.0): 93% | GI50 ([2]; A498, read-out: GI50): 9.31 µM | CC50 ([2]; A498, read-out: LC50 (the source's name)): > 100 µM | TGI [3]: >1.00E−4 | Percent Growth ([3]; Log10 Concentration −4.0): 2% | Percent Growth ([3]; Log10 Concentration −5.0): 31% | Percent Growth ([3]; Log10 Concentration −6.0): 77% | Percent Growth ([3]; Log10 Concentration −7.0): 87% | Percent Growth ([3]; Log10 Concentration −8.0): 98% | GI50 ([3]; read-out: GI50): 3.85 µM | CC50 [3, 29]: > 100 µM | TGI ([4]; CAKI-1): >1.00E−4 | Percent Growth ([4]; CAKI-1, Log10 Concentration −4.0): 4% | Percent Growth ([4]; CAKI-1, Log10 Concentration −5.0): 39% | Percent Growth ([4]; CAKI-1, Log10 Concentration −6.0): 87% | Percent Growth ([4]; CAKI-1, Log10 Concentration −7.0): 89% | Percent Growth ([4]; CAKI-1, Log10 Concentration −8.0): 94% | GI50 ([4]; CAKI-1, read-out: GI50): 5.83 µM | CC50 ([4]; CAKI-1, read-out: LC50 (the source's name)): > 100 µM | TGI [5]: 9.27E−5 | Percent Growth ([5]; Log10 Concentration −4.0): −2% | Percent Growth ([5]; Log10 Concentration −5.0): 57% | Percent Growth ([5]; Log10 Concentration −6.0): 78% | Percent Growth ([5]; Log10 Concentration −7.0): 71% | Percent Growth ([5]; Log10 Concentration −8.0): 87% | GI50 ([5]; read-out: GI50): 13.2 µM | CC50 [5, 29]: > 100 µM | TGI ([6]; TK-10): >1.00E−4 | Percent Growth ([6]; TK-10, Log10 Concentration −4.0): 2% | Percent Growth ([6]; TK-10, Log10 Concentration −5.0): 36% | Percent Growth ([6]; TK-10, Log10 Concentration −6.0): 83% | Percent Growth ([6]; TK-10, Log10 Concentration −7.0): 85% | Percent Growth ([6]; TK-10, Log10 Concentration −8.0): 102% | GI50 ([6]; TK-10, read-out: GI50): 5 µM | CC50 ([6]; TK-10, read-out: LC50 (the source's name)): > 100 µM | TGI ([7]; UO-31): 8.59E−5 | Percent Growth ([7]; UO-31, Log10 Concentration −4.0): −2% | Percent Growth ([7]; UO-31, Log10 Concentration −5.0): 25% | Percent Growth ([7]; UO-31, Log10 Concentration −6.0): 73% | Percent Growth ([7]; UO-31, Log10 Concentration −7.0): 73% | Percent Growth ([7]; UO-31, Log10 Concentration −8.0): 80% | GI50 ([7]; UO-31, read-out: GI50): 3.02 µM | CC50 ([7]; UO-31, read-out: LC50 (the source's name)): > 100 µM | GI50 ([8]; RXF 393): 6.43 µM | TGI ([8]; RXF 393): >1.00E−4 | Percent Growth ([8]; RXF 393, Log10 Concentration −4.0): 7% | Percent Growth ([8]; RXF 393, Log10 Concentration −5.0): 43% | Percent Growth ([8]; RXF 393, Log10 Concentration −6.0): 81% | Percent Growth ([8]; RXF 393, Log10 Concentration −7.0): 93% | Percent Growth ([8]; RXF 393, Log10 Concentration −8.0): 97% | CC50 ([8]; RXF 393, read-out: LC50 (the source's name)): > 100 µM

O=C1c2ccccc2C(=O)c2c1ccc1[nH]c(=O)c(=O)[nH]c21 [No. 26, Naphtho[2,3-f]quinoxaline-2,3,7,12 (1H,4H)-tetraone]
inhibition effect on cancer cell line (Table 2 value) [9]: −15.08 | inhibition effect on cancer cell line (Table 2 value) [10]: 77.59 | inhibition effect on cancer cell line (Table 2 value) [11]: 85.17 | inhibition effect on cancer cell line (Table 2 value) [12]: 144.42 | inhibition effect on cancer cell line (Table 2 value) [13]: 38.35 | inhibition effect on cancer cell line (Table 2 value) [14]: 87.10 | inhibition effect on cancer cell line (Table 2 value) [15]: 13.36 | inhibition effect on cancer cell line (Table 2 value) [16]: 103.31 | inhibition effect on cancer cell line (Table 2 value) [17]: 121.52 | inhibition effect on cancer cell line (Table 2 value) [18]: 81.33 | inhibition effect on cancer cell line (Table 2 value) [19]: 94.07 | inhibition effect on cancer cell line (Table 2 value) [20]: 61.43 | inhibition effect on cancer cell line (Table 2 value) [21]: 96.94 | inhibition effect on cancer cell line (Table 2 value) [22]: 149.83 | inhibition effect on cancer cell line (Table 2 value) [23]: 21.96 | inhibition effect on cancer cell line (Table 2 value) [24]: 118.21 | inhibition effect on cancer cell line (Table 2 value) [25]: 95.25 | inhibition effect on cancer cell line (Table 2 value) [26]: 101.16 | inhibition effect on cancer cell line (Table 2 value) [27]: 95.92 | Mean [28]: 100.83

O=C1c2ccccc2C(=O)c2c1ccc1nccnc21 [No. 25, Naphthol-[2,3-f]quinoxaline-7,12-dione]
inhibition effect on cancer cell line (Table 2 value) [10]: −7.15 | inhibition effect on cancer cell line (Table 2 value) [11]: 39.68 | inhibition effect on cancer cell line (Table 2 value) [12]: 102.03 | inhibition effect on cancer cell line (Table 2 value) [13]: 75.28 | inhibition effect on cancer cell line (Table 2 value) [14]: 85.19 | inhibition effect on cancer cell line (Table 2 value) [15]: 3.44 | inhibition effect on cancer cell line (Table 2 value) [16]: 94.22 | inhibition effect on cancer cell line (Table 2 value) [17]: 22.91 | inhibition effect on cancer cell line (Table 2 value) [18]: 46.52 | inhibition effect on cancer cell line (Table 2 value) [19]: 64.65 | inhibition effect on cancer cell line (Table 2 value) [20]: 51.45 | inhibition effect on cancer cell line (Table 2 value) [21]: 44.18 | inhibition effect on cancer cell line (Table 2 value) [22]: 180.88 | inhibition effect on cancer cell line (Table 2 value) [23]: 6.66 | inhibition effect on cancer cell line (Table 2 value) [24]: 91.06 | inhibition effect on cancer cell line (Table 2 value) [25]: 90.47 | inhibition effect on cancer cell line (Table 2 value) [26]: 40.72 | inhibition effect on cancer cell line (Table 2 value) [27]: 63.47 | Mean [28]: 69.36
